Columns and labels:
PRL = target: T1, PRL (Homo sapiens, UniProt P01236); experiment: Detection of PRL-CypB complexes by co-immunoprecipitation; format: binding; details: for interaction with PRL (co-immunoprecipitation): purified epitope-tagged recombinant proteins admixed, reducing agent or divalent cation
T1 construct: Full length PRL cDNA was generated by PCR; made in house; host or cells: Drosophila S2 cells
T1 sequence (P01236 29-227): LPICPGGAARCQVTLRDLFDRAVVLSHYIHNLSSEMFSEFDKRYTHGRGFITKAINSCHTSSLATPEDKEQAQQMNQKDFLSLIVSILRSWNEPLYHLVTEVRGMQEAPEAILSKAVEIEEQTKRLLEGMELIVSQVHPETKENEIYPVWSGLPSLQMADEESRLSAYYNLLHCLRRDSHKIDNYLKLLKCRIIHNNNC
Experimental: Complexes were immunoprecipitated by the addition of 1 μg of polyclonal anti-histidine antibody (#sc-803, Santa Cruz Biotech) for one hour followed by roatation for one hour with 50 μl Protein-A beads. Precipiated complexes were separated by 15% SDS-PAGE and transferred to PVDF. Immunoblots were blocked for one hour at room temperature with 5% milk in PBS containing 1% TWEEN-20 (PBST) and immunoblotted with a monoclonal anti-myc antibody (1:1000, mAb 9E10) for one hour. Immunoblots were analyzed by incubation with an anti-mouse secondary antibody conjugated to horseradish peroxidase (1:2000, Boehringer Mannheim) for one hour followed by incubation with ECL Plus (Amersham Pharmacia Biotech) amnd exposure to Biomax film (Kodak).

Nb2 cells = experiment: Nb2 cell proliferation (3H-thymidine) to assess CypB modulation of somatolactogenic action; format: cell-based, rat; details: for enhancement of PRL-driven growth compared to cultures that received only PRL: Nb2 cells, added to PRL-containing medium, most prominent at 5-10 mM CypB and 50 pM PRL
Experimental: (§1) The effect of exogenous CypB on PRL-driven proliferation was examined with the rat Nb2 T-cell and the human T47D breast cancer line. […] This dose-dependent biphasic effect was most prominent at physiologic concentrations (5-10 mM) of CypB and PRL (50 pM) found in human serum. […] To determine the effect of CypB on cellular growth driven by the larger family of cytokines, to which PRL belongs, proliferation driven by interleukin-2 (IL-2), IL-3 and GH was examined.
Nb2-cells (5×10^4; PRL-dependent, rat T-lymphoma) were plated in each well of 96 well plates in a defined DMEM-serum free medium (0.1 mM 2-mercaptoethanol, 1% penicillin/streptomycin, and 1% ITS+(Calbiochem)). Cells were rested for 24 hours at 37° C. in this defined medium in the absence of PRL before the addition of 5-500 pM PRL (either as human pituitary isolated PRL, National Hormone and Pituitary Program, NIDDK; recombinant human PRL from E. coli, Genzyme; or recombinant human PRL from Drosophila S2 cells) alone or premixed with 1-2000 fold excess of purified CypB. Parallel studies were performed using human pituitary-derived GH (National Hormone and Pituitary Program, NIDDK). Cultures were incubated for 48 hours at 37° C. and proliferation was evaluated by the addition of 0.5 μCi of ^3H-thymidine for four hours followed by harvesting and scintillography. When stimulated with PRL alone, Nb2 cells yield sigmoid shaped growth curves that plateau at approximately 2 ng PRL/ml.

[1] = system: IL-2- and IL-3-driven proliferation; experiment: IL-2- and IL-3-driven proliferation with added CypB; format: cell-based; details: varying concentration of CypB
Experimental: as §1

[2] = system: T47D human breast cancer cells; experiment: Nuclear retrotranslocation of PRL by indirect anti-PRL immunofluorescence; format: cell-based; details: defined T47D culture medium containing the co-mitogen EGF
Experimental: Experiments were performed to examine the ability of CypB to enhance nuclear retrotranslocation of PRL, and thereby PRL-driven proliferation.
The role of this sequence in the CypB-mediated retrotranslocation of PRL, and its associated enhancement of growth was tested by mutagenic approaches. The putative nuclear localization sequence of CypB was deleted in the mutant CypB-NT.

CypA: recombinant form of the highly homologous cyclophilin family member [reference compound]
interaction with PRL (co-immunoprecipitation) (PRL): failed to interact with PRL
enhancement of PRL-driven growth compared to cultures that received only PRL (Nb2 cells): did not result in any potentiation

CypB: cyclophilin family cis-trans peptidyl prolyl isomerase; recombinant His-tagged wild-type protein (SEQ ID NO: 1)
interaction with PRL in human serum (co-immunoprecipitation; binding to sepharose-conjugated recombinant CypB) (PRL; human serum): direct co-immunoprecipitation of PRL with CypB from human serum
interaction with PRL (co-immunoprecipitation) (PRL): direct interaction of CypB with PRL
enhancement of PRL-driven growth compared to cultures that received only PRL (Nb2 cells): eight-fold
enhancement of PRL-induced proliferation (Nb2 cells; cell line not stated): failed to enhance PRL-induced proliferation
enhancement of GH-driven proliferation compared to GH alone (Nb2 cells; physiological concentrations of CypB, human pituitary-derived GH): forty-fold
effect on IL-2-driven proliferation [1]: Neither IL-2- nor IL-3-driven proliferation was altered
effect on IL-3-driven proliferation [1]: Neither IL-2- nor IL-3-driven proliferation was altered
T47D nuclei exhibiting anti-PRL immunofluorescence [2]: 95-100%
